{"source": "the supplement of paper PMC10307832", "assay_in_all_cases": "relative viability (nuclei count vs DMSO), 5 days (fraction); higher = more cells survive", "key": {"NCI-H1944": {"tested_on": "NCI-H1944", "how_it_was_run": "(§1)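 For relative viability, nuclei counts in treated wells were divided by those in vehicle wells. Lung cancer cell lines had been pin-tool dosed in 1536-well plates the day after seeding and cultured for 5 days, then fixed and stained in one step (final 0.05% Triton X-100, 1% formaldehyde, 1 ug/ml Hoechst) and imaged at 4×. Doses were one drug alone or a fixed anchor-drug dose plus five library-drug doses (not always all listed) in √10 steps, and values are duplicate-plate medians.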"}, "NCI-H2023": {"tested_on": "NCI-H2023", "how_it_was_run": "as §1"}, "NCI-H2087": {"tested_on": "NCI-H2087", "how_it_was_run": "as §1"}, "NCI-H441": {"tested_on": "NCI-H441", "how_it_was_run": "as §1"}, "NCI-H460": {"tested_on": "NCI-H460", "how_it_was_run": "as §1"}, "NCI-H520": {"tested_on": "NCI-H520", "how_it_was_run": "as §1"}, "NCI-H596": {"tested_on": "NCI-H596", "how_it_was_run": "as §1"}, "NCI-H650": {"tested_on": "NCI-H650", "how_it_was_run": "as §1"}, "NCI-H661": {"tested_on": "NCI-H661", "how_it_was_run": "as §1"}, "NCI-H727": {"tested_on": "NCI-H727", "how_it_was_run": "as §1"}, "PC-3 [JPC-3]": {"tested_on": "PC-3 [JPC-3]", "how_it_was_run": "as §1"}}, "data": [{"compound": "O=c1cc(N2CCOCC2)oc2c(-c3cccc4c3sc3ccccc34)cccc12", "note": "+ CC(=O)Nc1cccc(-n2c(=O)n(C3CC3)c(=O)c3c(Nc4ccc(I)cc4F)n(C)c(=O)c(C)c32)c1 [Trametinib] (partner 0.02 µM)", "values": [{"measurement": "relative viability", "setting": "NCI-H1944; first compound 0.1 µM", "value": 0.396}, {"measurement": "relative viability", "setting": "NCI-H1944; first compound 0.3162 µM", "value": 0.411}, {"measurement": "relative viability", "setting": "NCI-H1944; first compound 1 µM", "value": 0.363}, {"measurement": "relative viability", "setting": "NCI-H2023; first compound 0.01 µM", "value": 0.676}, {"measurement": "relative viability", "setting": "NCI-H2023; first compound 0.03162 µM", "value": 0.574}, {"measurement": "relative viability", "setting": "NCI-H2023; first compound 0.1 µM", "value": 0.624}, {"measurement": "relative viability", "setting": "NCI-H2023; first compound 0.3162 µM", "value": 0.601}, {"measurement": "relative viability", "setting": "NCI-H2023; first compound 1 µM", "value": 0.396}, {"measurement": "relative viability", "setting": "NCI-H2087; first compound 0.01 µM", "value": 0.225}, {"measurement": "relative viability", "setting": "NCI-H2087; first compound 0.03162 µM", "value": 0.195}, {"measurement": "relative viability", "setting": "NCI-H2087; first compound 0.1 µM", "value": 0.231}, {"measurement": "relative viability", "setting": "NCI-H2087; first compound 0.3162 µM", "value": 0.188}, {"measurement": "relative viability", "setting": "NCI-H2087; first compound 1 µM", "value": 0.214}, {"measurement": "relative viability", "setting": "NCI-H441; first compound 0.01 µM", "value": 0.513}, {"measurement": "relative viability", "setting": "NCI-H441; first compound 0.03162 µM", "value": 0.431}, {"measurement": "relative viability", "setting": "NCI-H441; first compound 0.1 µM", "value": 0.406}, {"measurement": "relative viability", "setting": "NCI-H441; first compound 0.3162 µM", "value": 0.479}, {"measurement": "relative viability", "setting": "NCI-H441; first compound 1 µM", "value": 0.42}, {"measurement": "relative viability", "setting": "NCI-H460; first compound 0.01 µM", "value": 0.104}, {"measurement": "relative viability", "setting": "NCI-H460; first compound 0.03162 µM", "value": 0.127}, {"measurement": "relative viability", "setting": "NCI-H460; first compound 0.1 µM", "value": 0.185}, {"measurement": "relative viability", "setting": "NCI-H460; first compound 0.3162 µM", "value": 0.197}, {"measurement": "relative viability", "setting": "NCI-H460; first compound 1 µM", "value": 0.12}, {"measurement": "relative viability", "setting": "NCI-H520; first compound 0.01 µM", "value": 1.14}, {"measurement": "relative viability", "setting": "NCI-H520; first compound 0.03162 µM", "value": 0.594}, {"measurement": "relative viability", "setting": "NCI-H520; first compound 0.1 µM", "value": 0.768}, {"measurement": "relative viability", "setting": "NCI-H520; first compound 0.3162 µM", "value": 0.717}, {"measurement": "relative viability", "setting": "NCI-H520; first compound 1 µM", "value": 0.732}, {"measurement": "relative viability", "setting": "NCI-H596; first compound 0.01 µM", "value": 0.758}, {"measurement": "relative viability", "setting": "NCI-H596; first compound 0.03162 µM", "value": 0.866}, {"measurement": "relative viability", "setting": "NCI-H596; first compound 0.1 µM", "value": 0.831}, {"measurement": "relative viability", "setting": "NCI-H596; first compound 0.3162 µM", "value": 0.711}, {"measurement": "relative viability", "setting": "NCI-H596; first compound 1 µM", "value": 0.717}, {"measurement": "relative viability", "setting": "NCI-H650; first compound 0.01 µM", "value": 1.05}, {"measurement": "relative viability", "setting": "NCI-H650; first compound 0.03162 µM", "value": 1.1}, {"measurement": "relative viability", "setting": "NCI-H650; first compound 0.3162 µM", "value": 0.939}, {"measurement": "relative viability", "setting": "NCI-H650; first compound 1 µM", "value": 1.04}, {"measurement": "relative viability", "setting": "NCI-H661; first compound 0.01 µM", "value": 0.541}, {"measurement": "relative viability", "setting": "NCI-H661; first compound 0.03162 µM", "value": 0.587}, {"measurement": "relative viability", "setting": "NCI-H661; first compound 0.1 µM", "value": 0.674}, {"measurement": "relative viability", "setting": "NCI-H661; first compound 0.3162 µM", "value": 0.581}, {"measurement": "relative viability", "setting": "NCI-H661; first compound 1 µM", "value": 0.603}, {"measurement": "relative viability", "setting": "NCI-H727; first compound 0.01 µM", "value": 0.38}, {"measurement": "relative viability", "setting": "NCI-H727; first compound 0.03162 µM", "value": 0.372}, {"measurement": "relative viability", "setting": "NCI-H727; first compound 0.1 µM", "value": 0.389}, {"measurement": "relative viability", "setting": "NCI-H727; first compound 0.3162 µM", "value": 0.391}, {"measurement": "relative viability", "setting": "NCI-H727; first compound 1 µM", "value": 0.37}, {"measurement": "relative viability", "setting": "PC-3 [JPC-3]; first compound 0.01 µM", "value": 0.623}, {"measurement": "relative viability", "setting": "PC-3 [JPC-3]; first compound 0.03162 µM", "value": 0.675}, {"measurement": "relative viability", "setting": "PC-3 [JPC-3]; first compound 0.1 µM", "value": 0.649}, {"measurement": "relative viability", "setting": "PC-3 [JPC-3]; first compound 0.3162 µM", "value": 0.729}, {"measurement": "relative viability", "setting": "PC-3 [JPC-3]; first compound 1 µM", "value": 0.655}]}]}
